The values below come from patent publication US5162221A (Forschungszentrum Juelich GmbH, priority 1989, dated 1992).

The target in series [1] is fructose-1,6-bisphosphate aldolase (F-1,6-BP aldolase) from Staphylococcus carnosus, class I, purified (Staphylococcus carnosus, UniProt Q07159). Conditions: read-out: Km for F-1-P; cleavage of F-1-P to DHAP and glyceraldehyde; 37° C., pH 7.5. As to the method: Purified aldolase (40 μg/ml) was used for characterizing the enzyme, and 120 μg/ml were used for molecular weight determination.
Sequence of fructose-1,6-bisphosphate aldolase (F-1,6-BP aldolase) from Staphylococcus carnosus, class I, purified (Q07159 whole entry): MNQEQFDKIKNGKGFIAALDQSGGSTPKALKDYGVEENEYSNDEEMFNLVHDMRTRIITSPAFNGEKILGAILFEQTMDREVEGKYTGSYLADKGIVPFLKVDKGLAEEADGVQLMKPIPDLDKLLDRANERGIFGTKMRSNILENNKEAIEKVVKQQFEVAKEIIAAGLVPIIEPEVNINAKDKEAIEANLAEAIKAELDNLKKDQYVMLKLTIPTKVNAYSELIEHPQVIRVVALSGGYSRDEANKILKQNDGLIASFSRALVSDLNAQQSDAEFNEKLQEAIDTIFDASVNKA

Series [2] deals with O=C(COP(=O)(O)O)[C@@H](O)[C@H](O)[C@H](O)COP(=O)(O)O. Description: purified protein, by the assay type. As to conditions: other: cleavage of F-1,6-BP to DHAP and glyceraldehyde 3-phosphate, 37° C., pH 7.5.

`O=C(COP(=O)(O)O)[C@@H](O)[C@H](O)[C@H](O)CO` [F-1-P]: in series [1], the Km (in general, the concentration of substrate that gives half-maximal velocity) was determined as 18.8 mM.
Take “fructose-1,6-bisphosphate aldolase (F-1,6-BP aldolase) from Staphylococcus carnosus, class I, purified (Staphylococcus carnosus subsp. carnosus TM300)”: in series [2], the Km is on record as 0.022 mM.
